Measured values: patent US5430062A, “Stilbene derivatives as anticancer agents” (priority 1993, dated 1995)
Read-outs that look alike come from different tables or passages of the source. Each block holds one molecule with its values, some of them ahead of it.

Experiments:
MCF-7 breast carcinoma = test: MTT cytotoxicity assay, MCF-7; conditions: Homo sapiens, MCF7, […], read-out: Cytotoxicity ED50, MCF-7
A-549 lung carcinoma = test: MTT cytotoxicity assay, A-549; conditions: Homo sapiens, A549, […], read-out: Cytotoxicity ED50, A-549
[1] = system: HT-29 colon adenocarcinoma; test: MTT cytotoxicity assay, HT-29; conditions: Homo sapiens, HT-29, […], read-out: Cytotoxicity ED50, HT-29
[2] = system: five cancer cell cultures; test: MTT cytotoxicity assay, five cancer cell cultures taken together; conditions: for cytotoxicity (in words): five cancer cell lines
SKMEL-5 melanoma = test: MTT cytotoxicity assay, SKMEL-5; conditions: Homo sapiens, SK-MEL-5, […], read-out: Cytotoxicity ED50, SKMEL-5
MLM melanoma = test: MTT cytotoxicity assay, MLM; conditions: […], read-out: Cytotoxicity ED50, MLM
tubulin = test: Inhibition of tubulin polymerization (turbidimetry); assay type: biochemical, bovine; conditions: second series (Tables V-VII, IX); read-out: Inhibition of Tubulin Polymerization IC50 (±S.D.)
[3] = read-out: cytotoxicity ED50, five cancer cell lines

SMILES: COc1cc(/C=C\c2ccncc2)cc(OC)c1OC [5i, (Z)-1-(4-Pyridyl)-2-(3,4,5-trimethoxyphenyl)ethene]
- IC50 (MCF-7 breast carcinoma): 17 µM
- IC50 (A-549 lung carcinoma): 14.2 µM
- IC50 [1]: 12.9 µM
- IC50 [2, 3]: > 10 µM
- IC50 (SKMEL-5 melanoma): 14.4 µM
- IC50 (MLM melanoma): > 25 µM

SMILES: COc1cc(/C=C\c2cccnc2)cc(OC)c1OC [5j, (Z)-1-(3-Pyridyl)-2-(3,4,5-trimethoxyphenyl)ethene]
- IC50 (MCF-7 breast carcinoma): 14.7 µM
- IC50 (A-549 lung carcinoma): 13.7 µM
- IC50 [1]: 9.8 µM
- IC50 [2, 3]: > 10 µM
- IC50 (SKMEL-5 melanoma): 6 µM
- IC50 (MLM melanoma): > 25 µM

SMILES: COc1cc(/C=C\c2ccccn2)cc(OC)c1OC [5k, (Z)-1-(2-Pyridyl)-2-(3,4,5-trimethoxyphenyl)ethene]
- IC50 (MCF-7 breast carcinoma): > 25 µM
- IC50 (A-549 lung carcinoma): > 25 µM
- IC50 [1]: > 25 µM
- IC50 [2, 3]: > 10 µM
- IC50 (SKMEL-5 melanoma): > 25 µM
- IC50 (MLM melanoma): > 25 µM

SMILES: COc1cc(/C=C\c2ccc([N+](=O)[O-])cc2)cc(OC)c1OC [5l, (Z)-1-(4-Nitrophenyl)-2-(3,4,5-trimethoxyphenyl)ethene]
- IC50 (MCF-7 breast carcinoma): > 25 µM
- IC50 (A-549 lung carcinoma): > 25 µM
- IC50 [1]: > 25 µM
- cytotoxicity (in words) [2]: decreased the activity drastically
- IC50 (SKMEL-5 melanoma): > 25 µM
- IC50 (MLM melanoma): > 25 µM

SMILES: COc1cc(/C=C\c2ccc(O[Si](C)(C)C(C)(C)C)cc2)cc(OC)c1OC [5m, (Z)-1-[(4-t-Butyldimethylsilyloxy)phenyl]-2-(3,4,5-trimethoxyphenyl)ethene]
- IC50 (MCF-7 breast carcinoma): 7.29 µM
- IC50 (A-549 lung carcinoma): 11 µM
- IC50 [1]: 10.6 µM
- cytotoxicity (in words) [2]: decreased the activity drastically
- IC50 (SKMEL-5 melanoma): 7.59 µM
- IC50 (MLM melanoma): 17.2 µM

SMILES: COc1ccc(/C=C\c2ccc(OC)c(OC)c2)cc1 [15h, (Z)-(4-Methoxyphenyl)-2-(3,4-dimethoxyphenyl)ethene]
- IC50 (MCF-7 breast carcinoma): > 25 µM
- IC50 (A-549 lung carcinoma): > 25 µM
- IC50 [1]: > 25 µM
- IC50 [2, 3]: > 25 µM
- IC50 (SKMEL-5 melanoma): > 25 µM
- IC50 (MLM melanoma): > 25 µM

SMILES: COc1ccc(/C=C\c2cc(OC)cc(OC)c2)cc1 [15i, (Z)-1-(3,5-Dimethoxyphenyl)-2-(4-methoxyphenyl)ethene]
- IC50 (MCF-7 breast carcinoma): 0.16 µM
- IC50 (tubulin): 3.8 µM
- IC50 (A-549 lung carcinoma): 0.13 µM
- IC50 [1]: 0.34 µM
- IC50 ([2]; read-out: cytotoxicity ED50): ~0.1 µM
- IC50 (SKMEL-5 melanoma): 0.42 µM
- IC50 (MLM melanoma): 0.098 µM

SMILES: CCOc1ccc(/C=C/c2cc(OC)c(OC)c(OC)c2)cc1 [16a]
- IC50 (MCF-7 breast carcinoma): 0.75 µM
- IC50 (A-549 lung carcinoma): 0.17 µM
- IC50 [1]: 1.49 µM
- IC50 ([2]; read-out: cytotoxicity ED50): ~0.1 µM
- IC50 (SKMEL-5 melanoma): 1.17 µM
- IC50 (MLM melanoma): 0.22 µM

SMILES: COc1cc(/C=C/c2ccc(SC)cc2)cc(OC)c1OC [16c]
- IC50 (MCF-7 breast carcinoma): 0.059 µM
- IC50 (A-549 lung carcinoma): 0.47 µM
- IC50 [1]: 0.083 µM
- IC50 ([2]; read-out: cytotoxicity ED50, in at least three cell lines): ~0.1 µM
- IC50 (SKMEL-5 melanoma): 0.28 µM
- IC50 (MLM melanoma): 7.3 µM

SMILES: COc1cc(/C=C/c2ccc(C(C)C)cc2)cc(OC)c1OC [16f, (E)-[4-(2-Propyl)phenyl]-2-(3,4,5-trimethoxyphenyl)ethene]
- IC50 (MCF-7 breast carcinoma): 18.4 µM
- IC50 (A-549 lung carcinoma): 9.8 µM
- IC50 [1]: 6.8 µM
- IC50 ([2]; read-out: cytotoxicity ED50): ~0.1 µM
- IC50 (SKMEL-5 melanoma): 11.1 µM
- IC50 (MLM melanoma): > 25 µM

- IC50 (tubulin): 10 µM
SMILES: CCOc1ccc(CCc2cc(OC)c(OC)c(OC)c2)cc1 [17a, 1-(4-Ethoxyphenyl)-2-(3,4,5-trimethoxyphenyl)ethane]
- IC50 (MCF-7 breast carcinoma): 0.19 µM
- IC50 (A-549 lung carcinoma): 0.19 µM
- IC50 [1]: 0.18 µM
- IC50 ([2]; read-out: cytotoxicity ED50, in at least four cell lines): < 1 µM
- IC50 (SKMEL-5 melanoma): 0.17 µM
- IC50 (MLM melanoma): 2.7 µM

- IC50 (tubulin): > 40 µM
SMILES: CCCOc1ccc(CCc2cc(OC)c(OC)c(OC)c2)cc1 [17b, 1-(4-n-Propoxyphenyl)-2-(3,4,5-trimethoxyphenyl)ethane]
- IC50 (MCF-7 breast carcinoma): 3.9 µM
- IC50 (A-549 lung carcinoma): 7.2 µM
- IC50 [1]: 6.4 µM
- cytotoxicity (in words) [2]: decreased cytotoxicity
- IC50 (SKMEL-5 melanoma): 6.7 µM
- IC50 (MLM melanoma): 15 µM

- IC50 (tubulin): > 40 µM
SMILES: COc1cc(CCc2ccc(SC)cc2)cc(OC)c1OC [17c, 1-(4-Methylthiophenyl)-2-(3,4,5-trimethoxyphenyl)ethane]
- IC50 (MCF-7 breast carcinoma): 0.2 µM
- IC50 (A-549 lung carcinoma): 0.15 µM
- IC50 [1]: 0.4 µM
- cytotoxicity (in words) [2]: decreased cytotoxicity
- IC50 (SKMEL-5 melanoma): 0.24 µM
- IC50 (MLM melanoma): 1.3 µM

- IC50 (tubulin): > 40 µM
SMILES: COc1cc(CCc2ccc(OCCN(C)C)cc2)cc(OC)c1OC [17f]
- IC50 (MCF-7 breast carcinoma): 10.3 µM
- IC50 (A-549 lung carcinoma): > 25 µM
- IC50 [1]: 9.8 µM
- cytotoxicity (in words) [2]: decreased cytotoxicity
- IC50 (SKMEL-5 melanoma): 11.4 µM
- IC50 (MLM melanoma): > 25 µM

SMILES: COc1cc(/C=C\c2ccc(O)cc2)cc(OC)c1OC [compound 5o, (Z)-1-(4-Hydroxyphenyl)-2-(3,4,5-trimethoxyphenyl)ethene]
- IC50 (MCF-7 breast carcinoma): 5.7 µM
- IC50 (A-549 lung carcinoma): 12.7 µM
- IC50 [1]: 1.75 µM
- cytotoxicity (in words) [2]: decreased the activity drastically
- IC50 (SKMEL-5 melanoma): 2.27 µM
- IC50 (MLM melanoma): 12.6 µM

SMILES: COc1cc(/C=C\c2ccc(C(C)C)cc2)cc(OC)c1OC [compound 15f, (Z)-[4-(2-Propyl)phenyl]-2-(3,4,5-trimethoxyphenyl)ethene]
- IC50 (MCF-7 breast carcinoma): 0.0014 µM
- IC50 (A-549 lung carcinoma): 0.0066 µM
- IC50 [1]: 0.0024 µM
- IC50 ([2]; read-out: cytotoxicity ED50): 0.00047 to 0.07 µM
- IC50 (SKMEL-5 melanoma): 0.00047 µM
- IC50 (MLM melanoma): 0.07 µM

- IC50 (tubulin): > 40 µM
SMILES: COc1ccc(C2Cc3cc(OC)c(OC)c(OC)c3C2=O)cc1 (centres unmarked) [compound 34, 2-(4-Methoxyphenyl)-4,5,6-trimethoxyindan-3-one]
- IC50 (MCF-7 breast carcinoma): > 25 µM
- IC50 (A-549 lung carcinoma): > 25 µM
- IC50 [1]: > 25 µM
- IC50 (SKMEL-5 melanoma): > 25 µM
- IC50 (MLM melanoma): > 25 µM

- IC50 (tubulin): > 40 µM
SMILES: COc1ccc(C2Cc3cc(OC)c(OC)c(OC)c3C2)cc1 (centres unmarked) [compound 35, 2-(4-Methoxyphenyl)-4,5,6-trimethoxyindane]
- IC50 (MCF-7 breast carcinoma): > 25 µM
- IC50 (A-549 lung carcinoma): > 25 µM
- IC50 [1]: 12.8 µM
- IC50 (SKMEL-5 melanoma): 19.5 µM
- IC50 (MLM melanoma): > 25 µM

- IC50 (tubulin): > 40 µM
SMILES: COc1ccc(Cc2c3cc(OC)c(OC)c(OC)c3cc[n+]2C)cc1 [compound 37, 1-(4'-Methoxybenzyl)-5,6,7-trimethoxyisoquinoline Methiodide]
- IC50 (MCF-7 breast carcinoma): > 25 µM
- IC50 (A-549 lung carcinoma): 19.5 µM
- IC50 [1]: 20.5 µM
- IC50 (SKMEL-5 melanoma): 2.1 µM
- IC50 (MLM melanoma): > 25 µM

- IC50 (tubulin): > 40 µM
SMILES: COc1ccc(CC2NCCc3c2cc(OC)c(OC)c3OC)cc1 (centres unmarked) [compound 38, 1-(4'-Methoxybenzyl)-5,6,7-trimethoxy-1,2,3,4-tetrahydroisoquinoline]
- IC50 (MCF-7 breast carcinoma): > 25 µM
- IC50 (A-549 lung carcinoma): 19.3 µM
- IC50 [1]: 20.2 µM
- IC50 (SKMEL-5 melanoma): > 25 µM
- IC50 (MLM melanoma): > 25 µM

- IC50 (tubulin): > 40 µM
SMILES: COc1ccc(C(=O)c2nccc3c(OC)c(OC)c(OC)cc23)cc1 [compound 39, 1-(4'-Methoxybenzoyl)-5,6,7-trimethoxyisoquinoline]
- IC50 (MCF-7 breast carcinoma): > 25 µM
- IC50 (A-549 lung carcinoma): > 25 µM
- IC50 [1]: > 25 µM
- IC50 (SKMEL-5 melanoma): > 25 µM
- IC50 (MLM melanoma): > 25 µM

- IC50 (tubulin): > 40 µM
SMILES: COc1ccc(C(=O)c2c3cc(OC)c(OC)c(OC)c3cc[n+]2C)cc1 [compound 40, 1-(4'-Methoxybenzoyl)-5,6,7-trimethoxyisoquinoline Methiodide]
- IC50 (MCF-7 breast carcinoma): > 25 µM
- IC50 (A-549 lung carcinoma): > 25 µM
- IC50 [1]: > 25 µM
- IC50 (SKMEL-5 melanoma): > 25 µM
- IC50 (MLM melanoma): > 25 µM

- IC50 (tubulin): > 40 µM
SMILES: COc1ccc(CC2c3cc(OC)c(OC)c(OC)c3CCN2C)cc1 (centres unmarked) [compound 41, 1-(4'-Methoxybenzyl)-5,6,7-trimethoxy-2-methyl-1,2,3,4-tetrahydroisoquinoline]
- IC50 (MCF-7 breast carcinoma): 22.7 µM
- IC50 (A-549 lung carcinoma): 11.4 µM
- IC50 [1]: 9.7 µM
- IC50 (SKMEL-5 melanoma): 8.8 µM
- IC50 (MLM melanoma): > 25 µM

- IC50 (tubulin): > 40 µM
SMILES: COc1ccc2c(c1)CN1CCc3c(cc(OC)c(OC)c3OC)C1C2 (centres unmarked) [compound 48, 5,8,13,13a-Tetrahedro-2,3,4,10-tetramethoxy-6H-dibenzo-(a,g)quinolizine]
- IC50 (MCF-7 breast carcinoma): > 25 µM
- IC50 (A-549 lung carcinoma): > 25 µM
- IC50 [1]: > 25 µM
- IC50 (SKMEL-5 melanoma): > 25 µM
- IC50 (MLM melanoma): > 25 µM
